Reference: the supplement of paper PMC8882468

tested on: HCI-010 (organoid from a breast cancer xenograft); assay: CTG-3D luminescence at 96 h relative to day-0 seeding control (ratio to day 0); higher = more growth / less cytotoxicity; PDxO 3D drug screen, 96 h, CTG-3D normalised to day-0 seeding control.; details: 0.005 µM; days in culture: 103

Row | SMILES | CTG-3D luminescence at 96 h
1 | O=C(O)C1(C(=O)O)CCC1.[NH2-].[NH2-].[Pt+2] [carboplatin] | 3.55
2 | COc1cc2c(Oc3ccc4[nH]c(C)cc4c3F)ncnc2cc1OCCCN1CCCC1 [cediranib] | 3.17
3 | C[C@@H]1COCCN1c1cc(C2([S@](C)(=N)=O)CC2)nc(-c2cc[nH]c3nccc2-3)n1 [ceralasertib] | 3.45
4 | Cc1cc(Nc2ncc(Cl)c(Nc3ccccc3S(=O)(=O)C(C)C)n2)c(OC(C)C)cc1C1CCNCC1 [ceritinib] | 3.35
5 | O=C(c1ccc(F)c(F)c1Nc1ccc(I)cc1F)N1CC(O)([C@@H]2CCCCN2)C1 [cobimetinib] | 3.78
6 | C[C@H](NC(=O)CCC(F)(F)F)C(=O)N[C@@H]1C(=O)N(CCO)c2ncccc2-c2ccccc21 [crenigacestat] | 3.34
7 | COc1cccc2c1C(=O)c1c(O)c3c(c(O)c1C2=O)C[C@@](O)(C(=O)CO)C[C@@H]3O[C@H]1C[C@H](N)[C@H](O)[C@H](C)O1 [doxorubicin] | 3.69
8 | C[C@]12CC[C@@H]3c4ccc(O)cc4C[C@@H](CCCCCCCCC[S+]([O-])CCCC(F)(F)C(F)(F)F)[C@H]3[C@@H]1CC[C@@H]2O (some centres not stated) [fulvestrant] | 3.47
9 | Nc1ccn([C@@H]2O[C@H](CO)[C@@H](O)C2(F)F)c(=O)n1 [gemcitabine] | 0.867

same assay, conditions: 0.1 µM; days in culture: 52

Row | SMILES | CTG-3D luminescence at 96 h
10 | O=C(O)C1(C(=O)O)CCC1.[NH2-].[NH2-].[Pt+2] [carboplatin] | 2.47
11 | COc1cc2c(Oc3ccc4[nH]c(C)cc4c3F)ncnc2cc1OCCCN1CCCC1 [cediranib] | 2.46
12 | C[C@@H]1COCCN1c1cc(C2([S@](C)(=N)=O)CC2)nc(-c2cc[nH]c3nccc2-3)n1 [ceralasertib] | 2.04
13 | Cc1cc(Nc2ncc(Cl)c(Nc3ccccc3S(=O)(=O)C(C)C)n2)c(OC(C)C)cc1C1CCNCC1 [ceritinib] | 2.54
14 | O=C(c1ccc(F)c(F)c1Nc1ccc(I)cc1F)N1CC(O)([C@@H]2CCCCN2)C1 [cobimetinib] | 2.62
15 | C[C@H](NC(=O)CCC(F)(F)F)C(=O)N[C@@H]1C(=O)N(CCO)c2ncccc2-c2ccccc21 [crenigacestat] | 2.54
16 | COc1cccc2c1C(=O)c1c(O)c3c(c(O)c1C2=O)C[C@@](O)(C(=O)CO)C[C@@H]3O[C@H]1C[C@H](N)[C@H](O)[C@H](C)O1 [doxorubicin] | 1.93
17 | C[C@]12CC[C@@H]3c4ccc(O)cc4C[C@@H](CCCCCCCCC[S+]([O-])CCCC(F)(F)C(F)(F)F)[C@H]3[C@@H]1CC[C@@H]2O (some centres not stated) [fulvestrant] | 2.46
18 | Nc1ccn([C@@H]2O[C@H](CO)[C@@H](O)C2(F)F)c(=O)n1 [gemcitabine] | 0.455

same assay, conditions: 0.1 µM; days in culture: 65

Row | SMILES | CTG-3D luminescence at 96 h
19 | O=C(O)C1(C(=O)O)CCC1.[NH2-].[NH2-].[Pt+2] [carboplatin] | 1.77
20 | COc1cc2c(Oc3ccc4[nH]c(C)cc4c3F)ncnc2cc1OCCCN1CCCC1 [cediranib] | 1.77
21 | C[C@@H]1COCCN1c1cc(C2([S@](C)(=N)=O)CC2)nc(-c2cc[nH]c3nccc2-3)n1 [ceralasertib] | 1.57
22 | Cc1cc(Nc2ncc(Cl)c(Nc3ccccc3S(=O)(=O)C(C)C)n2)c(OC(C)C)cc1C1CCNCC1 [ceritinib] | 1.94
23 | O=C(c1ccc(F)c(F)c1Nc1ccc(I)cc1F)N1CC(O)([C@@H]2CCCCN2)C1 [cobimetinib] | 1.67
24 | C[C@H](NC(=O)CCC(F)(F)F)C(=O)N[C@@H]1C(=O)N(CCO)c2ncccc2-c2ccccc21 [crenigacestat] | 1.64
25 | COc1cccc2c1C(=O)c1c(O)c3c(c(O)c1C2=O)C[C@@](O)(C(=O)CO)C[C@@H]3O[C@H]1C[C@H](N)[C@H](O)[C@H](C)O1 [doxorubicin] | 1.3
26 | C[C@]12CC[C@@H]3c4ccc(O)cc4C[C@@H](CCCCCCCCC[S+]([O-])CCCC(F)(F)C(F)(F)F)[C@H]3[C@@H]1CC[C@@H]2O (some centres not stated) [fulvestrant] | 1.82
27 | Nc1ccn([C@@H]2O[C@H](CO)[C@@H](O)C2(F)F)c(=O)n1 [gemcitabine] | 0.23

same assay, conditions: 0.1 µM; days in culture: 103

Row | SMILES | CTG-3D luminescence at 96 h
28 | O=C(O)C1(C(=O)O)CCC1.[NH2-].[NH2-].[Pt+2] [carboplatin] | 3.27
29 | COc1cc2c(Oc3ccc4[nH]c(C)cc4c3F)ncnc2cc1OCCCN1CCCC1 [cediranib] | 3.43
30 | C[C@@H]1COCCN1c1cc(C2([S@](C)(=N)=O)CC2)nc(-c2cc[nH]c3nccc2-3)n1 [ceralasertib] | 3
31 | Cc1cc(Nc2ncc(Cl)c(Nc3ccccc3S(=O)(=O)C(C)C)n2)c(OC(C)C)cc1C1CCNCC1 [ceritinib] | 3.68
32 | O=C(c1ccc(F)c(F)c1Nc1ccc(I)cc1F)N1CC(O)([C@@H]2CCCCN2)C1 [cobimetinib] | 3.21
33 | C[C@H](NC(=O)CCC(F)(F)F)C(=O)N[C@@H]1C(=O)N(CCO)c2ncccc2-c2ccccc21 [crenigacestat] | 3.15
34 | COc1cccc2c1C(=O)c1c(O)c3c(c(O)c1C2=O)C[C@@](O)(C(=O)CO)C[C@@H]3O[C@H]1C[C@H](N)[C@H](O)[C@H](C)O1 [doxorubicin] | 2.37
35 | C[C@]12CC[C@@H]3c4ccc(O)cc4C[C@@H](CCCCCCCCC[S+]([O-])CCCC(F)(F)C(F)(F)F)[C@H]3[C@@H]1CC[C@@H]2O (some centres not stated) [fulvestrant] | 3.46
36 | Nc1ccn([C@@H]2O[C@H](CO)[C@@H](O)C2(F)F)c(=O)n1 [gemcitabine] | 0.503

same assay, conditions: 1 µM; days in culture: 52

Row | SMILES | CTG-3D luminescence at 96 h
37 | O=C(O)C1(C(=O)O)CCC1.[NH2-].[NH2-].[Pt+2] [carboplatin] | 2.55
38 | COc1cc2c(Oc3ccc4[nH]c(C)cc4c3F)ncnc2cc1OCCCN1CCCC1 [cediranib] | 2.24
39 | C[C@@H]1COCCN1c1cc(C2([S@](C)(=N)=O)CC2)nc(-c2cc[nH]c3nccc2-3)n1 [ceralasertib] | 0.835
40 | Cc1cc(Nc2ncc(Cl)c(Nc3ccccc3S(=O)(=O)C(C)C)n2)c(OC(C)C)cc1C1CCNCC1 [ceritinib] | 2.64
41 | O=C(c1ccc(F)c(F)c1Nc1ccc(I)cc1F)N1CC(O)([C@@H]2CCCCN2)C1 [cobimetinib] | 2.15
42 | C[C@H](NC(=O)CCC(F)(F)F)C(=O)N[C@@H]1C(=O)N(CCO)c2ncccc2-c2ccccc21 [crenigacestat] | 2.37
43 | COc1cccc2c1C(=O)c1c(O)c3c(c(O)c1C2=O)C[C@@](O)(C(=O)CO)C[C@@H]3O[C@H]1C[C@H](N)[C@H](O)[C@H](C)O1 [doxorubicin] | 0.497
44 | C[C@]12CC[C@@H]3c4ccc(O)cc4C[C@@H](CCCCCCCCC[S+]([O-])CCCC(F)(F)C(F)(F)F)[C@H]3[C@@H]1CC[C@@H]2O (some centres not stated) [fulvestrant] | 2.2
45 | Nc1ccn([C@@H]2O[C@H](CO)[C@@H](O)C2(F)F)c(=O)n1 [gemcitabine] | 0.327

same assay, conditions: 1 µM; days in culture: 65

Row | SMILES | CTG-3D luminescence at 96 h
46 | O=C(O)C1(C(=O)O)CCC1.[NH2-].[NH2-].[Pt+2] [carboplatin] | 1.63
47 | COc1cc2c(Oc3ccc4[nH]c(C)cc4c3F)ncnc2cc1OCCCN1CCCC1 [cediranib] | 1.42
48 | C[C@@H]1COCCN1c1cc(C2([S@](C)(=N)=O)CC2)nc(-c2cc[nH]c3nccc2-3)n1 [ceralasertib] | 0.693
49 | Cc1cc(Nc2ncc(Cl)c(Nc3ccccc3S(=O)(=O)C(C)C)n2)c(OC(C)C)cc1C1CCNCC1 [ceritinib] | 1.83
50 | O=C(c1ccc(F)c(F)c1Nc1ccc(I)cc1F)N1CC(O)([C@@H]2CCCCN2)C1 [cobimetinib] | 1.6
51 | C[C@H](NC(=O)CCC(F)(F)F)C(=O)N[C@@H]1C(=O)N(CCO)c2ncccc2-c2ccccc21 [crenigacestat] | 1.79
52 | COc1cccc2c1C(=O)c1c(O)c3c(c(O)c1C2=O)C[C@@](O)(C(=O)CO)C[C@@H]3O[C@H]1C[C@H](N)[C@H](O)[C@H](C)O1 [doxorubicin] | 0.324
53 | C[C@]12CC[C@@H]3c4ccc(O)cc4C[C@@H](CCCCCCCCC[S+]([O-])CCCC(F)(F)C(F)(F)F)[C@H]3[C@@H]1CC[C@@H]2O (some centres not stated) [fulvestrant] | 1.96
54 | Nc1ccn([C@@H]2O[C@H](CO)[C@@H](O)C2(F)F)c(=O)n1 [gemcitabine] | 0.163

same assay, conditions: 1 µM; days in culture: 103

Row | SMILES | CTG-3D luminescence at 96 h
55 | O=C(O)C1(C(=O)O)CCC1.[NH2-].[NH2-].[Pt+2] [carboplatin] | 3.23
56 | COc1cc2c(Oc3ccc4[nH]c(C)cc4c3F)ncnc2cc1OCCCN1CCCC1 [cediranib] | 2.66
57 | C[C@@H]1COCCN1c1cc(C2([S@](C)(=N)=O)CC2)nc(-c2cc[nH]c3nccc2-3)n1 [ceralasertib] | 1.49
58 | Cc1cc(Nc2ncc(Cl)c(Nc3ccccc3S(=O)(=O)C(C)C)n2)c(OC(C)C)cc1C1CCNCC1 [ceritinib] | 3.99
59 | O=C(c1ccc(F)c(F)c1Nc1ccc(I)cc1F)N1CC(O)([C@@H]2CCCCN2)C1 [cobimetinib] | 2.72
60 | C[C@H](NC(=O)CCC(F)(F)F)C(=O)N[C@@H]1C(=O)N(CCO)c2ncccc2-c2ccccc21 [crenigacestat] | 3.09
61 | COc1cccc2c1C(=O)c1c(O)c3c(c(O)c1C2=O)C[C@@](O)(C(=O)CO)C[C@@H]3O[C@H]1C[C@H](N)[C@H](O)[C@H](C)O1 [doxorubicin] | 0.535
62 | C[C@]12CC[C@@H]3c4ccc(O)cc4C[C@@H](CCCCCCCCC[S+]([O-])CCCC(F)(F)C(F)(F)F)[C@H]3[C@@H]1CC[C@@H]2O (some centres not stated) [fulvestrant] | 3.26
63 | Nc1ccn([C@@H]2O[C@H](CO)[C@@H](O)C2(F)F)c(=O)n1 [gemcitabine] | 0.479

same assay, conditions: 10 µM; days in culture: 52

Row | SMILES | CTG-3D luminescence at 96 h
64 | O=C(O)C1(C(=O)O)CCC1.[NH2-].[NH2-].[Pt+2] [carboplatin] | 0.598
65 | COc1cc2c(Oc3ccc4[nH]c(C)cc4c3F)ncnc2cc1OCCCN1CCCC1 [cediranib] | 0.221
66 | C[C@@H]1COCCN1c1cc(C2([S@](C)(=N)=O)CC2)nc(-c2cc[nH]c3nccc2-3)n1 [ceralasertib] | 0.422
67 | Cc1cc(Nc2ncc(Cl)c(Nc3ccccc3S(=O)(=O)C(C)C)n2)c(OC(C)C)cc1C1CCNCC1 [ceritinib] | -0.0117
68 | O=C(c1ccc(F)c(F)c1Nc1ccc(I)cc1F)N1CC(O)([C@@H]2CCCCN2)C1 [cobimetinib] | 1.67
69 | C[C@H](NC(=O)CCC(F)(F)F)C(=O)N[C@@H]1C(=O)N(CCO)c2ncccc2-c2ccccc21 [crenigacestat] | 2.23
70 | COc1cccc2c1C(=O)c1c(O)c3c(c(O)c1C2=O)C[C@@](O)(C(=O)CO)C[C@@H]3O[C@H]1C[C@H](N)[C@H](O)[C@H](C)O1 [doxorubicin] | 0.271
71 | C[C@]12CC[C@@H]3c4ccc(O)cc4C[C@@H](CCCCCCCCC[S+]([O-])CCCC(F)(F)C(F)(F)F)[C@H]3[C@@H]1CC[C@@H]2O (some centres not stated) [fulvestrant] | 2.56
72 | Nc1ccn([C@@H]2O[C@H](CO)[C@@H](O)C2(F)F)c(=O)n1 [gemcitabine] | 0.234
